Broadly, the IC90 is the point of the concentration-response curve where the effect stands at 90%. Usually IC50 stands for the concentration needed to halve the response being measured.

The record followed here is ChEMBL document CHEMBL3352781, “Synthesis, antileishmanial and antitrypanosomal activities of N-substituted tetrahydro-β-carbolines” (Bioorg Med Chem Lett, 2014).

The subject of data set [1] is Trypanosoma brucei. Briefly: Antimicrobial activity against trypamastigote stage of Trypanosoma brucei after 72 hrs by Alamar Blue assay. It counts as functional, organism-based. In general terms: The colour change of resazurin is a common sign of viable cells or microbes.
Data set [2] has as its system THP-1. In words: Cytotoxicity against human THP1 cells up to 10 ug/ml after 48 hrs by neutral red assay. It is filed as cell-based. Particulars: thp-1, 48 h.
Data set [3] relates to Leishmania donovani. In words: Antimicrobial activity against axenic amastigote stage of Leishmania donovani after 72 hrs by Alamar Blue assay. It counts as functional, organism-based.
Data set [4] has as its system Leishmania donovani. In words: Antimicrobial activity against promastigote stage of Leishmania donovani after 72 hrs by Alamar Blue assay. It counts as functional, organism-based.
The subject of data set [5] is Vero. Briefly: Cytotoxicity against African green monkey Vero cells up to 25 ug/ml after 48 hrs by neutral red assay. It is filed as cell-based. Particulars: chlorocebus sabaeus.
The test system of data set [6] is Leishmania donovani. Briefly: Antimicrobial activity against promastigote stage of Leishmania donovani infected in human THP1 cells after 72 hrs by Alamar Blue assay. It counts as functional, organism-based.
Data set [7] deals with HepG2. Briefly: Cytotoxicity against human HepG2 cells up to 25 ug/ml after 48 hrs by neutral red assay. It counts as cell-based. The note with it: hepg2, 48 h.
For data set [8], the system named is LLC-PK1. In words: Cytotoxicity against pig LLC-PK1 cells up to 25 ug/ml after 48 hrs by neutral red assay. It counts as cell-based, Sus scrofa. The note with it: llc-pk1, 48 h.
[9] abbreviates: Trypanosoma brucei, 72 h, read-out: IC50.
[10] abbreviates: Leishmania donovani, 72 h, read-out: IC50.
[11] abbreviates: Leishmania donovani, THP-1, 72 h.
Where [12] appears, read: Leishmania donovani, THP-1, 72 h, read-out: IC50.

The source made the active and inactive calls. No cut-off for these calls is given here.

Regarding `NCCCC(N)(C(=O)O)C(F)F` (stereo not drawn) [EFLORNITHINE], it took 68.2 µM to reach the 90% level in data set [1] (Trypanosoma brucei, 72 h) (IC90). Further, the half-maximal inhibitory concentration (IC50) in data set [1] (setting [9]) stood at 28 µM.

Consider `O=C(c1ccc(Br)o1)N1CCc2c([nH]c3ccccc23)C1`, for which the Activity result in data set [2], in data set [5], in data set [7] and in data set [8] was “Non-toxic” each time. The IC90 in data set [3] (Leishmania donovani, 72 h) came out at 122 µM; in data set [1] (Trypanosoma brucei, 72 h) it was 23.9 µM. Moreover, the IC50 in data set [3] (setting [10]) was 96.5 µM; in data set [4] (setting [10]) it was 27.5 µM; in data set [6] (thp-1) it was “Not Active”; in data set [1] (setting [9]), 13.7 µM. Also, the IC90 result in data set [6] (THP-1) was “inactive”.

Take `c1ccc2nc(CN3CCc4c([nH]c5ccccc45)C3)ccc2c1`: the IC50 entry in data set [3], in data set [4], in data set [6] (thp-1) and in data set [1] was “Not Active” in each case. Further, the IC90 entry in data set [3], in data set [4], in data set [6] (THP-1) and in data set [1] was “inactive” in each case.

`c1ccc2c3c([nH]c2c1)CN(Cc1ccncc1)CC3`: the Activity entry in data set [2], in data set [5], in data set [7] and in data set [8] was “Non-toxic” in each case. In addition, the IC50 result was “Not Active” in data set [3], 121 µM in data set [4] (setting [10]), “Not Active” in data set [6] (thp-1) and 26.2 µM in data set [1] (setting [9]). The IC90 result in data set [3] and in data set [6] (THP-1) was “inactive” in each case.

Consider `c1ccc2cc(CN3CCc4c([nH]c5ccccc45)C3)ccc2c1`, for which the Activity result in data set [2], in data set [5], in data set [7] and in data set [8] was “Non-toxic” each time. The IC50 in data set [3] (setting [10]) stood at 87.6 µM; in data set [4] (setting [10]), 22.1 µM; in data set [6] (setting [12]), 28.3 µM; in data set [1] (setting [9]) it was 10.2 µM. In addition, the IC90 in data set [4] (Leishmania donovani, 72 h) was 28.1 µM; in data set [6] (setting [11]) it was over 32 µM; in data set [1] (Trypanosoma brucei, 72 h) it was 17.6 µM.

As for `O=C(c1ccc(-c2ccc(-c3ccccc3)cc2)o1)N1CCc2c([nH]c3ccccc23)C1`, the Activity result in data set [2], in data set [5], in data set [7] and in data set [8] was “Non-toxic” throughout. Further, the IC90 in data set [3] (Leishmania donovani, 72 h) is 110 µM; in data set [4] (Leishmania donovani, 72 h), 111 µM. The IC50 is 83.4 µM in data set [3] (setting [10]), 75.3 µM in data set [4] (setting [10]), “Not Active” in data set [6] (thp-1) and “Not Active” in data set [1]. Moreover, the IC90 entry in data set [6] (THP-1) and in data set [1] was “inactive” in each case.

Regarding `Cn1cc(C(=O)N2CCc3c([nH]c4ccccc34)C2)c2ccccc21`, the Activity result in data set [2], in data set [5], in data set [7] and in data set [8] was “Non-toxic” throughout. In addition, the IC50 result is “Not Active” in data set [3], 52.6 µM in data set [4] (setting [10]), “Not Active” in data set [6] (thp-1) and “Not Active” in data set [1]. Also, the IC90 entry in data set [3], in data set [6] (THP-1) and in data set [1] was “inactive” throughout.

In the case of `C[C@@H]1[C@H](O)[C@@H](C)/C=C/C=C/C=C/C=C/C=C/C=C/C=C/[C@H](O[C@@H]2O[C@H](C)[C@@H](O)[C@H](N)[C@@H]2O)C[C@@H]2O[C@](O)(C[C@@H](O)C[C@@H](O)[C@H](O)CC[C@@H](O)C[C@@H](O)CC(=O)O[C@H]1C)C[C@H](O)[C@H]2C(=O)O` [AMPHOTERICIN B], the IC90 in data set [3] (Leishmania donovani, 72 h) amounted to 0.4 µM; in data set [4] (Leishmania donovani, 72 h), 0.4 µM; in data set [6] (setting [11]), 0.5 µM. In addition, the IC50 in data set [3] (setting [10]) is 0.3 µM; in data set [4] (setting [10]) it was 0.3 µM; in data set [1], “Not Active”. Moreover, the IC90 entry in data set [1] was “inactive”.

Consider `N=C(N)c1ccc(OCCCCCOc2ccc(C(=N)N)cc2)cc1` [PENTAMIDINE], for which the 90% effect concentration (IC90) was over 29.4 µM in data set [3] (Leishmania donovani, 72 h); 6.1 µM in data set [4] (Leishmania donovani, 72 h); 3.1 µM in data set [6] (setting [11]); 0.007 µM in data set [1] (Trypanosoma brucei, 72 h). Moreover, the IC50 in data set [3] (setting [10]) was over 29.4 µM; in data set [4] (setting [10]), 4.8 µM; in data set [6] (setting [12]), 2 µM; in data set [1] (setting [9]), 0.0041 µM.

Regarding `Cc1noc(C)c1CN1CCc2c([nH]c3ccccc23)C1`, the Activity entry in data set [2], in data set [5], in data set [7] and in data set [8] was “Non-toxic” in each case. For the same compound, the half-maximal inhibitory concentration (IC50) result in data set [3] is “Not Active”; in data set [4], “Not Active”; in data set [6] (thp-1), “Not Active”; in data set [1] (setting [9]), 15.9 µM. Also, the IC90 entry in data set [3], in data set [4] and in data set [6] (THP-1) was “inactive” each time. In addition, the concentration for an effect of 90% (IC90) in data set [1] (Trypanosoma brucei, 72 h) amounted to 26.3 µM.

As for `CN1CCN(C(=O)N2CCc3c([nH]c4ccccc34)C2)CC1`, the IC50 result in data set [3], in data set [4], in data set [6] (thp-1) and in data set [1] was “Not Active” in each case. Further, the IC90 entry in data set [3], in data set [4], in data set [6] (THP-1) and in data set [1] was “inactive” in each case.

With `O=C(N1CCOCC1)N1CCc2c([nH]c3ccccc23)C1`, the half-inhibitory concentration (IC50) result in data set [3], in data set [4], in data set [6] (thp-1) and in data set [1] was “Not Active” each time. Moreover, the IC90 entry in data set [3], in data set [4], in data set [6] (THP-1) and in data set [1] was “inactive” throughout.

Consider `Cc1ncsc1C(=O)N1CCc2c([nH]c3ccccc23)C1`, for which the IC50 result in data set [3], in data set [4], in data set [6] (thp-1) and in data set [1] was “Not Active” throughout. The IC90 result in data set [3], in data set [4], in data set [6] (THP-1) and in data set [1] was “inactive” in each case.

As for `O=C1NCCN1C(=O)N1CCc2c([nH]c3ccccc23)C1`, the IC50 entry in data set [3], in data set [4], in data set [6] (thp-1) and in data set [1] was “Not Active” throughout. The IC90 result in data set [3], in data set [4], in data set [6] (THP-1) and in data set [1] was “inactive” throughout.

Consider `O=C(c1cc2ccccc2o1)N1CCc2c([nH]c3ccccc23)C1`, for which the Activity entry in data set [2], in data set [5], in data set [7] and in data set [8] was “Non-toxic” throughout. Further, the concentration for half-maximal inhibition (IC50) was 116 µM in data set [3] (setting [10]), 49.5 µM in data set [4] (setting [10]), “Not Active” in data set [6] (thp-1) and “Not Active” in data set [1]. The compound further registered an IC90 in data set [4] (Leishmania donovani, 72 h) of 120 µM. The IC90 entry in data set [6] (THP-1) and in data set [1] was “inactive” throughout.

For the compound `O=C(c1ccc(-c2cccc([N+](=O)[O-])c2)o1)N1CCc2c([nH]c3ccccc23)C1`, the Activity result in data set [2], in data set [5], in data set [7] and in data set [8] was “Non-toxic” each time. The IC50 result is “Not Active” in data set [3], 66.7 µM in data set [4] (setting [10]), “Not Active” in data set [6] (thp-1) and “Not Active” in data set [1]. Also, the IC90 result in data set [3], in data set [6] (THP-1) and in data set [1] was “inactive” each time.

`Cc1ccsc1C(=O)N1CCc2c([nH]c3ccccc23)C1`: the Activity entry in data set [2], in data set [5], in data set [7] and in data set [8] was “Non-toxic” throughout. Further, the concentration for half-maximal inhibition (IC50) entry in data set [3] was “Not Active”; in data set [4] (setting [10]) it was 26 µM; in data set [6] (thp-1) it was “Not Active”; in data set [1], “Not Active”. Moreover, the IC90 entry in data set [3], in data set [6] (THP-1) and in data set [1] was “inactive” in each case.

For the compound `O=C(c1ccc2ccccc2n1)N1CCc2c([nH]c3ccccc23)C1`, the IC50 result in data set [3], in data set [4], in data set [6] (thp-1) and in data set [1] was “Not Active” in each case. In addition, the IC90 result in data set [3], in data set [4], in data set [6] (THP-1) and in data set [1] was “inactive” throughout.

`O=C(c1cnccn1)N1CCc2c([nH]c3ccccc23)C1`: the half-maximal inhibitory concentration (IC50) result in data set [3], in data set [4], in data set [6] (thp-1) and in data set [1] was “Not Active” each time. Also, the IC90 entry in data set [3], in data set [4], in data set [6] (THP-1) and in data set [1] was “inactive” in each case.
